This is an account of results in US11202782B2, “Treatment cancers using a combination comprising PARP inhibitors” (BeiGene, Ltd., priority 2016, dated 2021).

Data set [1] deals with primary human gastric cancer xenograft. Nature of the data set: Tumor growth in primary human gastric cancer xenograft model. Type of data set: in vivo, BALB/c nude mice. The note with it: paclitaxel 15 mg/kg Q4D×3 i.p.; Compound A 12 mg/kg BID p.o.; not statistically different from vehicle. As for the experimental part: (§1) Tumor tissues surgically removed from a patient with gastric cancer. Within 2 to 4 hours following patient surgery, small fragments of tumor (3×3×3 mm^3) were subcutaneously engrafted into the scapular area of anesthetized NOD/SCID mice. After tumors grew to around 300-1000 mm^3, tumors were surgically removed and fragments were passaged in NOD/SCID mice by subsequent engraftments. Engraftment in BALB/c nude mice was conducted after 3 successfully passages in NOD/SCID mice. The right axilla region of each BALB/C nude mouse was cleaned with 70% ethanol prior to tumor fragments inoculation. Each animal was implanted subcutaneously with a fragment (around 3×3×3 mm^3) of the gastric cancer in the right flank via 20-gauge trocar needle.
All doses were based on free-base weight.
After implantation, primary tumor volume was measured in two dimensions using a calliper. Tumor volume was calculated using the formula: V=0.5×(a×b^2) where a and b are the long and short diameters of the tumor, respectively. Tumor growth inhibition (TGI) was calculated using the following formula:
[formula] Statistical analysis was conducted using the student T-test. P<0.05 was considered statistically significant.
On the technique in general: In xenograft studies the graft and the host belong to different species.

For another data set, the system named is PARP1/2. The note with it: disclosed in WO2013/097225A1; cited from earlier work.
Data set [2] in a line: Body weight and toxicity in primary human SCLC (extensive-stage) xenograft model. The following applies: cohort2, Compound B 5.45 mg/kg BID maintenance. The format is in vivo, BALB/c nude mice. How it is done: 47 days after implantation, animals bearing tumor were divided to two cohorts, cohort lused smaller tumors for combination setting and cohort 2 used bigger tumors for maintenance setting. In cohort1, animals with mean tumor size of ˜150 mm^3 were assigned into 6 groups with 9 mice per group using a stratified randomization procedure. Mice were then treated with vehicle (0.5% methylcellulose) twice daily (BID) or Compound B at 5.45 mg/kg BID for 21 days, or E/C [etoposide at 12 mg/kg (Day1-3)+carboplatin at 60 mg/kg (Day1) of a 7 day cycle] for 3 cycles then vehicle BID for 21 days (Day22-42), or the combination of E/C with Compound B at 0.68, 1.36 or 2.73 mg/kg BID (Day1-4 of the 7 day cycle) for 3 cycles then Compound B maintenance therapy at 5.45 mg/kg BID for 21 days (Day22-42). In cohort2, animals with mean tumor size of ˜400 mm^3 were treated with E/C for 3 cycles first. At day22, 20 animals were assigned into 2 groups with 10 mice per group using a stratified randomization procedure, then treated with vehicle (0.5% methylcellulose) twice daily (BID) for 21 days (Day22-42), or Compound B maintenance therapy at 5.45 mg/kg BID for 21 days (Day22-42). All doses were based on free-base weight.

Data set [3] deals with primary human SCLC (extensive-stage) xenograft. Nature of the data set: Tumor growth in primary human SCLC (extensive-stage) xenograft model. The format is in vivo, BALB/c nude mice. The note with it: cohort2, E/C 3 cycles then Compound B 5.45 mg/kg BID for 21 days. As for the experimental part: as §1, with “extensive-stage SCLC.” for “gastric cancer.”, “biopsy, the” for “surgery, small fragments of”, “samples” for “(3×3×3 mm^3)”, “lung” for “gastric”
47 days after implantation, animals bearing tumor were divided to two cohorts, cohort lused smaller tumors for combination setting and cohort 2 used bigger tumors for maintenance setting. In cohort1, animals with mean tumor size of ˜150 mm^3 were assigned into 6 groups with 9 mice per group using a stratified randomization procedure. […]
After implantation, primary tumor volume was measured in two dimensions using a caliper. Tumor volume was calculated using the formula: V=0.5×(a×b^2) where a and b are the long and short diameters of the tumor, respectively. […]
Tumor growth inhibition (TGI) was calculated using the following formula: […]

The subject of data set [4] is Primary tumor cells from a patient with colorectal cancer cultured in Matrigel co-cultured with allogeneic human PBMCs. Nature of the data set: IFN-γ release in primary human tumor cells (Matrigel)/PBMC co-culture with EpCAM×CD3 bispecific T cell engager. The note with it: 50 ng/mL EpCAM×CD3 bispecific T cell engager, 72 hours; Compound B 30 nM, Mab-1 1 μg/mL; treatment group divided by control group. The format is cell-based. As for the experimental part:
After signed the informed consent, healthy human donor's blood was collected and PBMCs were isolated with Ficoll (GE Healthcare, 17-1440-02) according to the manufacturer's protocol with small modification. Briefly, fresh blood was diluted with equivalent volume of 1×DPBS (Gibco®, 14190-144), added equivalent volume of Ficoll into a 50 mL sterile tube, and added diluted blood very carefully onto the surface of the Ficoll. Then centrifuged at 400 g for 40 minutes at room temperature. Carefully removed the upper layer and pipetted the lymphocyte layer to a clean sterile tube, added 3 volumes of 1×DPBS and centrifuge at 200 g for 10 minutes at room temperature. After discarded the supernatant, suspended cells with 10 mL 1×DPBS and washed 2 times more. Suspended cells with 5 mL RPMI-1640 (Gibco®, 22400-089) complete medium (added with 10% fetal bovine serum (Gibco®, 10099-141). […]
Primary tumor cells from a patient with colorectal cancer cultured in Matrigel® were co-cultured with non pre-activated allogeneic human PBMCs, with 50 ng/ml EpCAM×CD3 bispecific T cell engager and with or without an PARP inhibitor named Compound B (30 nM) or an anti-PD-1 antibody named Mab-1 (1 μg/mL), or their combination (named as Mab-1+ Compound B, for short), and cultured for 72 hours. Human IFN-γ in the supernatant of the co-culture system was measured and as the readout (See FIG. 4). […]

A short description of data set [5]: Particle size distribution of crystalline sesqui-hydrate. Type of data set: physicochemical. As for the experimental part: Compound A-Crude 2 (5.3 Kg) was mixed with a solution of isopropanol (41.6 Kg) and water (15.9 Kg). The mixture was degassed and re-protected under nitrogen and then heated to 60° C. and stirred for 2-4 h until the solid was dissolved completely. The temperature was raised to 70-80° C. and water (143 Kg) was added. The resulting mixture was heated to the internal temperature of 70-80° C. and then the heating was stopped but stirred gently for 16 h. The precipitate was filtered, washed with water (19 Kg) and slurred with water (21 kg) for 2 h. The resulting solid was filtered, washed with water (20 Kg). The filtered solid was dried at the temperature below 45° C. for 24-36 h. Compound A sesqui-hydrate (4.22 kg) was obtained with particle sizes of D90=51.51 um, D50=18.62 um, D10=7.63 um. This range of PSD is almost ideal for formulation development.

Take `C[C@]12CCCN1CC1=NNC(=O)c3cc(F)cc4[nH]c2c1c34` [Compound A, (R)-2-fluoro-10a-methyl-7,8,9,10,10a,11-hexahydro-5,6,7a,11-tetraazacyclohepta[def]cyclopenta[a]fluoren-4(5H)-one]: in data set [1], the “tumor growth inhibition (TGI) on day 21, single agent” value worked out at 30%. For the same compound, in the data set on PARP1/2, the PARP1/2 inhibitory activities entry was “highly selective and potent”.
For `C[C@]12CCCN1CC1=NNC(=O)c3cc(F)cc4[nH]c2c1c34` [Compound B, (R)-2-fluoro-10a-methyl-7,8,9,10,10a,11-hexahydro-5,6,7a,11-tetraazacyclohepta[def]cyclopenta[a]fluoren-4(5H)-one sesqui-hydrate], the “body weight change during the maintenance phase compared to the E/C treatment group” value in data set [2] is given as “no significant body weight change”. For the same compound, the “mean tumor volume after maintenance” value in data set [3] was determined as 571 mm^3. For the same compound, the “fold changes of IFN-γ” value in data set [4] amounted to 1.08. For the same compound, in data set [5], the “particle size D10” value was 7.63 um, the “particle size D50” value is reported as 18.62 um and the “particle size D90” value was 51.51 um.
For the compound `CC(=O)O[C@H]1C(=O)[C@@]2(C)[C@H]([C@H](OC(=O)c3ccccc3)[C@]3(O)C[C@H](OC(=O)[C@H](O)[C@@H](NC(=O)c4ccccc4)c4ccccc4)C(C)=C1C3(C)C)[C@]1(OC(C)=O)CO[C@@H]1C[C@@H]2O` [paclitaxel, reference compound], in data set [1], the “tumor growth inhibition (TGI) on day 21, single agent” value was found to be 31%.
